Earlier results, collected in patent US9333174B2, “Use of simple amino acids to form porous particles” (Civitas Therapeutics, Inc., priority 1999, dated 2016).

Conditions: hydrophobicity scale on which glycine has the value 0.5; value of the amino acid itself

Going from `NCC(=O)O` [glycine] to `N[C@@H](CCC(=O)O)C(=O)O` [Glutamate], the hydrophobicity falls from 0.5 to 0.043.

Going from `N[C@@H](Cc1ccccc1)C(=O)O` [Phenylalanine] to `CC[C@H](C)[C@H](N)C(=O)O` [Isoleucine], the hydrophobicity rises from 0.501 to 0.943.
